Measured values reported in PubChem BioAssay AID1996.
Converted amounts (≈) assume the structure as drawn.

Details: buffer; pH 7.4; 200.0 µM

First: CN(CC(=O)Nc1ccc(SC(F)F)cc1)C1CCCCC1
Second: Cc1cc(SCC(=O)N(C)C2CCCCC2)nc2ccccc12
The solubility kinetic of the first is 1.7-fold higher: 0.0322 mg/mL (≈ 98 µM) for the first, 0.0194 mg/mL (≈ 59.1 µM) for the second.

First: COc1ccc(NC(=S)N2CCc3ccccc32)cc1OC
Second: COc1ccccc1OCC(=O)NC1CCCc2ccccc21 (stereo unspecified)
The solubility kinetic of the first is higher: greater than 0.0472 mg/mL for the first, 0.0416 mg/mL (≈ 134 µM) for the second.

First: CCN(CC)c1ccc(NC(=O)c2ccccc2Br)cc1S(=O)(=O)Nc1ccccc1OC
Second: O=S(=O)(Nc1ccccc1O)c1ccc(-c2ccccc2)cc1
The solubility kinetic of the first is 21-fold lower: 0.0006 mg/mL (≈ 1.13 µM) for the first, 0.0123 mg/mL (≈ 37.8 µM) for the second.

Compared with `Cc1c(Cl)cccc1NC(=S)NCCc1ccccn1`, `CCCc1cc(C(=O)Nc2cccc(Cl)c2C)no1` is lower in solubility kinetic: greater than 0.0459 mg/mL for the first, 0.0164 mg/mL (≈ 58.8 µM) for the second.

Compared with `COc1ccc(C(=O)OC(C)CN2CCOCC2)cc1.Cl` (stereo unspecified), `Cc1ccc(S(=O)(=O)N2CCOCC2)cc1NC(=O)Nc1ccc([N+](=O)[O-])cc1` is lower in solubility kinetic: greater than 0.0474 mg/mL for the first, 0.0018 mg/mL (≈ 4.28 µM) for the second.

`Cc1cc(=O)[nH]c2c3ccccc3nn12` and `CCc1ccccc1Nc1nc2ccccc2[nH]1` cannot be ordered by solubility kinetic: greater than 0.0299 mg/mL for the first, 0.0332 mg/mL (≈ 140 µM) for the second.

First: O=C(COC(=O)c1ccccc1F)NC1CCCC1
Second: O=C(COC(=O)c1cccs1)NC1CCCC1
The solubility kinetic of the first is higher: greater than 0.0398 mg/mL for the first, 0.0365 mg/mL (≈ 144 µM) for the second.

Going from `CC(=O)c1csc(Nc2ccccc2Cl)n1` to `O=C(COc1ccccc1F)Nc1nc(-c2ccccn2)cs1`, the solubility kinetic falls from 0.0328 mg/mL (≈ 130 µM) to 0.0088 mg/mL (≈ 26.7 µM) (3.7-fold).

Going from `Cc1cc(C)cc(NC(=O)C2CCN(C(=O)c3cccs3)CC2)c1` to `CC1CCN(C(=O)c2cc(-c3ccco3)on2)CC1`, the solubility kinetic falls from greater than 0.0514 mg/mL to 0.0377 mg/mL (≈ 145 µM).

Compared with `CN(CC(=O)OCC(=O)NC1CCCC1)S(=O)(=O)c1ccc(Cl)cc1`, `CC(C)c1ccc(NC(=O)COC(=O)C2CC3C=CC2C3)cc1` (stereo unspecified) is lower in solubility kinetic: greater than 0.0583 mg/mL for the first, 0.0221 mg/mL (≈ 70.5 µM) for the second.

`CC(NS(=O)(=O)c1ccc2ccccc2c1)c1ccccn1.Cl` (stereo unspecified) and `CCOc1ccc(S(=O)(=O)NC(=O)c2ccccc2)cc1` cannot be ordered by solubility kinetic: greater than 0.0523 mg/mL for the first, greater than 0.0458 mg/mL for the second.

Going from `CN(C)c1cccc(NC(=O)c2ccco2)c1` to `O=C(Nc1cccc([N+](=O)[O-])c1)c1ccc2nsnc2c1`, the solubility kinetic falls from greater than 0.0345 mg/mL to 0.0019 mg/mL (≈ 6.33 µM).

Going from `COc1ccc(-n2c(C)c(C)c3c(NCCO)ncnc32)cc1` to `COc1ccc(CCNC(=O)c2coc3ccccc3c2=O)cc1`, the solubility kinetic falls from greater than 0.0469 mg/mL to 0.0017 mg/mL (≈ 5.26 µM).

First: CN(C)CCOC(=O)CCCCCCCCC(=O)OCCN(C)C.Cl
Second: CCCCCCc1c(O)nc(SCCN(C)C)[nH]c1=O
The solubility kinetic of the first is higher: greater than 0.0626 mg/mL for the first, 0.0328 mg/mL (≈ 110 µM) for the second.

Compared with `COC(=O)C(O)(c1ccc(NC(=O)c2ccccc2)cc1)C(F)(F)F` (stereo unspecified), `O=C(Cn1c(=O)sc2ccccc21)Nc1ccc(O)cc1` is higher in solubility kinetic: 0.0429 mg/mL (≈ 121 µM) for the first, greater than 0.045 mg/mL for the second.

`CCN(CC)c1ccc(/C=C2\C(=O)NC(=S)N(c3ccc(OC)cc3OC)C2=O)o1` and `CCCN(Cc1ccco1)S(=O)(=O)c1ccc(OC)c(OC)c1` are within 1.5-fold of each other in solubility kinetic: 0.056 mg/mL (≈ 130 µM) for the first, 0.0413 mg/mL (≈ 122 µM) for the second.

Going from `COC(=O)/C=C1\SC(=NC(=O)c2ccc(C)cc2)NC1=O` to `CC(=O)c1ccc(NC(=O)c2onc(C)c2Cl)cc1`, the solubility kinetic falls from 0.0445 mg/mL (≈ 146 µM) to 0.0068 mg/mL (≈ 24.4 µM) (6.5-fold).

Compared with `Cc1oc2ccccc2c1CNC(=O)N(C)C`, `CCCCNC(=O)c1cc2c(=O)n(CC)c3ccccc3c2s1` is lower in solubility kinetic: greater than 0.0348 mg/mL for the first, less than 0.0004 mg/mL for the second.

Compared with `O=C(O)c1cccc(OCCN2CCCC2=O)c1`, `Cc1cccc(OCCCCN2CCNCC2)c1` is 1.6-fold lower in solubility kinetic: 0.0346 mg/mL (≈ 139 µM) for the first, 0.0213 mg/mL (≈ 85.8 µM) for the second.

Compared with `Cc1cc(C)c2c(=O)c(C#N)coc2c1`, `C/C(=C\c1ccc(Br)cc1)C(=O)c1c(C)cc(C)[nH]c1=O` is higher in solubility kinetic: 0.0264 mg/mL (≈ 133 µM) for the first, greater than 0.0519 mg/mL for the second.

`CCn1ncc(-c2csc(N)n2)c1C` and `Cn1c(SCC(=O)NC2CC2)nnc1-c1cccs1` cannot be ordered by solubility kinetic: greater than 0.0312 mg/mL for the first, greater than 0.0442 mg/mL for the second.

`COC(=O)c1c(C)[nH]c(C(=O)NCc2ccco2)c1C` and `COCCCNC(=O)C(=O)Nc1cc2c3c(c1)CCN3C(=O)CC2` are within 1.5-fold of each other in solubility kinetic: 0.0353 mg/mL (≈ 128 µM) for the first, 0.0494 mg/mL (≈ 149 µM) for the second.

First: Cn1c(N)c(C(=O)COC(=O)c2cccc(S(=O)(=O)NCc3ccccc3)c2)c(=O)n(C)c1=O
Second: CCOCCn1c(=O)c2c(nc3n2CCCN3Cc2ccccc2)n(C)c1=O
The solubility kinetic of the first is lower: 0.0176 mg/mL (≈ 36.2 µM) for the first, greater than 0.0575 mg/mL for the second.

Compared with `O=C(CN1c2cccc3cccc(c23)S1(=O)=O)N1CCN(c2ccccc2)CC1`, `O=C(CNC(c1ccccc1)c1ccccc1)Nc1ccccc1F` is lower in solubility kinetic: 0.0034 mg/mL (≈ 8.34 µM) for the first, less than 0.0004 mg/mL for the second.

`O=S1(=O)CCN(OCc2ccc(Cl)cc2)CC1` and `Cc1ccc(NC(=O)N2CCCC(C(=O)O)C2)cc1` (stereo unspecified) cannot be ordered by solubility kinetic: greater than 0.0414 mg/mL for the first, greater than 0.0393 mg/mL for the second.

`Cc1ccsc1CNCCc1ccc(F)cc1` and `Cc1ccc(NS(=O)(=O)c2ccc(F)cc2)nc1` are within 1.5-fold of each other in solubility kinetic: 0.0271 mg/mL (≈ 109 µM) for the first, 0.0344 mg/mL (≈ 129 µM) for the second.

Compared with `O=C(/C=C/c1ccccc1)NC(=O)c1ccccc1O`, `CC(Sc1ccccc1)C(=O)NCCc1ccccc1` (stereo unspecified) is higher in solubility kinetic: 0.0014 mg/mL (≈ 5.24 µM) for the first, greater than 0.0428 mg/mL for the second.

First: Cc1ccccc1Nc1c([N+](=O)[O-])ccc2nonc12
Second: O=C(COc1ccccc1[N+](=O)[O-])Nc1cccnc1
The solubility kinetic of the first is 86-fold lower: 0.0002 mg/mL (≈ 0.74 µM) for the first, 0.0173 mg/mL (≈ 63.3 µM) for the second.

Compared with `CCCCN1C(=O)C(=O)N(CC(=O)Nc2ccccc2C(C)=O)C1=O`, `Cc1c(/C=C2\NC(=O)NC2=O)c2ccccc2n1C` is lower in solubility kinetic: greater than 0.0518 mg/mL for the first, 0.0369 mg/mL (≈ 145 µM) for the second.

`CN1CCc2c(sc3c2C(=O)NC(/C=C\c2ccccc2)N3)C1` (stereo unspecified) and `N#Cc1cccc(C#N)c1NCC1CCCO1` (stereo unspecified) cannot be ordered by solubility kinetic: 0.0446 mg/mL (≈ 137 µM) for the first, greater than 0.0341 mg/mL for the second.

With `O=C(O)C1CCCCC1C(=O)Nc1ccc2c(c1)OCO2` (stereo unspecified) the solubility kinetic was greater than 0.0437 mg/mL.
